Results: the supplement of paper PMC10307832

Experiments:
Experiment in all cases: relative viability (nuclei count vs DMSO), 5 days (fraction); higher = more cells survive
[1] = compound: CCc1c2c(nc3ccc(OC(=O)N4CCC(N5CCCCC5)CC4)cc13)-c1cc3c(c(=O)n1C2)COC(=O)[C@]3(O)CC [Irinotecan] + CS(=O)(=O)N1CCN(Cc2cc3nc(-c4cccc5[nH]ncc45)nc(N4CCOCC4)c3s2)CC1 [Pictilisib] (partner 1 µM)
Method in brief: (§1)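 Nuclei were stained with Hoechst during a one-step fixation (final 0.05% Triton X-100, 1% formaldehyde, 1 ug/ml Hoechst) carried out 5 days after dosing, then counted on 4× images. The cells, lung cancer lines in 1536-well plates, had been dosed by pin tool the day after seeding with one drug alone or a fixed anchor-drug dose plus five library-drug doses (not always all listed) in √10 steps. Relative viability is the nuclei count in treated wells divided by that in vehicle wells, and each value is the median of duplicate plates.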

[2] = compound: CCc1c2c(nc3ccc(OC(=O)N4CCC(N5CCCCC5)CC4)cc13)-c1cc3c(c(=O)n1C2)COC(=O)[C@]3(O)CC [Irinotecan] + O=C(c1cc(Cc2n[nH]c(=O)c3ccccc23)ccc1F)N1CCN(C(=O)C2CC2)CC1 [Olaparib] (partner 8 µM)
Method in brief: as §1

[3] = compound: CC[C@@H](C)CNCC(=O)N1CCC2=C([C@@H]1COC3=CC=CC(=C3)C)C=CS2 [RU-SKI 43] + C[C@@H](Oc1cc(-c2cnn(C3CCNCC3)c2)cnc1N)c1c(Cl)ccc(F)c1Cl [Crizotinib] (partner 1 µM)
Method in brief: as §1

[4] = compound: CC[C@@H](C)CNCC(=O)N1CCC2=C([C@@H]1COC3=CC=CC(=C3)C)C=CS2 [RU-SKI 43] + CC(=O)Nc1cccc(-n2c(=O)n(C3CC3)c(=O)c3c(Nc4ccc(I)cc4F)n(C)c(=O)c(C)c32)c1 [Trametinib] (partner 0.02 µM)
Method in brief: as §1

## EBC-1
[1]; first compound 0.6325 µM
  relative viability: 0.29
[1]; first compound 2 µM
  relative viability: 0.301
[1]; first compound 6.325 µM
  relative viability: 0.315
[1]; first compound 20 µM
  relative viability: 0.131
[2]; first compound 0.6325 µM
  relative viability: 0.228
[2]; first compound 2 µM
  relative viability: 0.224
[2]; first compound 6.325 µM
  relative viability: 0.257
[2]; first compound 20 µM
  relative viability: 0.188
[3]; first compound 0.1 µM
  relative viability: 0.19
[3]; first compound 0.3162 µM
  relative viability: 0.183
[3]; first compound 1 µM
  relative viability: 0.202
[3]; first compound 3.162 µM
  relative viability: 0.176
[3]; first compound 10 µM
  relative viability: 0.155

## SK-MES-1
[1]; first compound 0.6325 µM
  relative viability: 0.336
[1]; first compound 2 µM
  relative viability: 0.319
[1]; first compound 6.325 µM
  relative viability: 0.254
[1]; first compound 20 µM
  relative viability: 0.257
[4]; first compound 0.1 µM
  relative viability: 0.482
[4]; first compound 0.3162 µM
  relative viability: 0.597
[4]; first compound 1 µM
  relative viability: 0.522
[4]; first compound 3.162 µM
  relative viability: 0.52
[4]; first compound 10 µM
  relative viability: 0.474
[2]; first compound 0.6325 µM
  relative viability: 0.364
[2]; first compound 2 µM
  relative viability: 0.293
[2]; first compound 6.325 µM
  relative viability: 0.325
[2]; first compound 20 µM
  relative viability: 0.255
[3]; first compound 0.1 µM
  relative viability: 0.862
[3]; first compound 0.3162 µM
  relative viability: 1.07
[3]; first compound 1 µM
  relative viability: 1.06
[3]; first compound 3.162 µM
  relative viability: 1.09
[3]; first compound 10 µM
  relative viability: 0.98

## A549
[1]; first compound 0.6325 µM
  relative viability: 0.502
[1]; first compound 2 µM
  relative viability: 0.452
[1]; first compound 6.325 µM
  relative viability: 0.139
[1]; first compound 20 µM
  relative viability: 0.0724
[2]; first compound 0.6325 µM
  relative viability: 0.073
[2]; first compound 2 µM
  relative viability: 0.186
[2]; first compound 6.325 µM
  relative viability: 0.0779
[2]; first compound 20 µM
  relative viability: 0.0719
[3]; first compound 0.1 µM
  relative viability: 0.775
[3]; first compound 0.3162 µM
  relative viability: 1.12
[3]; first compound 1 µM
  relative viability: 0.847
[3]; first compound 3.162 µM
  relative viability: 0.71
[3]; first compound 10 µM
  relative viability: 0.52

## NCI-H2126
[1]; first compound 2 µM
  relative viability: 0.41
[1]; first compound 6.325 µM
  relative viability: 0.286
[1]; first compound 20 µM
  relative viability: 0.335
[4]; first compound 0.1 µM
  relative viability: 0.56
[4]; first compound 0.3162 µM
  relative viability: 0.605
[4]; first compound 1 µM
  relative viability: 0.506
[4]; first compound 3.162 µM
  relative viability: 0.607
[4]; first compound 10 µM
  relative viability: 0.559
[2]; first compound 0.6325 µM
  relative viability: 0.388
[2]; first compound 2 µM
  relative viability: 0.387
[2]; first compound 6.325 µM
  relative viability: 0.303
[2]; first compound 20 µM
  relative viability: 0.27
[3]; first compound 0.1 µM
  relative viability: 1.01
[3]; first compound 0.3162 µM
  relative viability: 1.24
[3]; first compound 1 µM
  relative viability: 1.06
[3]; first compound 3.162 µM
  relative viability: 1.06
[3]; first compound 10 µM
  relative viability: 1.01
